Laboratory results published in patent US10407407B2, “Benzoimidazole derivatives as PAD4 inhibitors” (GLAXOSMITHKLINE INTELLECTUAL PROPERTY DEVELOPMENT LIMITED, priority 2015, dated 2019).
Several values for one entry are separate records, joined by “and”; a condition that tells them apart may be missing. Identical values can stand only once.

What was measured:
[1] = target: T1, Recombinant human PAD4 (residues 1-663) (Homo sapiens, UniProt Q9UM07); assay: PAD4 enzyme assay (FLINT NH3 release, BAEE substrate; conditions A or B); format: biochemical; details: PAD4 enzyme assay above or similar assays; read-out: mean pIC50 (converted)
T1 construct: Recombinant human PAD4 (residues 1-663) was expressed in E. coli as an N-terminal GST-tagged fusion protein; GST (N, cleaved yes); made in house; host or cells: E. coli
T1 sequence (Q9UM07 whole entry, the tested form may be a part): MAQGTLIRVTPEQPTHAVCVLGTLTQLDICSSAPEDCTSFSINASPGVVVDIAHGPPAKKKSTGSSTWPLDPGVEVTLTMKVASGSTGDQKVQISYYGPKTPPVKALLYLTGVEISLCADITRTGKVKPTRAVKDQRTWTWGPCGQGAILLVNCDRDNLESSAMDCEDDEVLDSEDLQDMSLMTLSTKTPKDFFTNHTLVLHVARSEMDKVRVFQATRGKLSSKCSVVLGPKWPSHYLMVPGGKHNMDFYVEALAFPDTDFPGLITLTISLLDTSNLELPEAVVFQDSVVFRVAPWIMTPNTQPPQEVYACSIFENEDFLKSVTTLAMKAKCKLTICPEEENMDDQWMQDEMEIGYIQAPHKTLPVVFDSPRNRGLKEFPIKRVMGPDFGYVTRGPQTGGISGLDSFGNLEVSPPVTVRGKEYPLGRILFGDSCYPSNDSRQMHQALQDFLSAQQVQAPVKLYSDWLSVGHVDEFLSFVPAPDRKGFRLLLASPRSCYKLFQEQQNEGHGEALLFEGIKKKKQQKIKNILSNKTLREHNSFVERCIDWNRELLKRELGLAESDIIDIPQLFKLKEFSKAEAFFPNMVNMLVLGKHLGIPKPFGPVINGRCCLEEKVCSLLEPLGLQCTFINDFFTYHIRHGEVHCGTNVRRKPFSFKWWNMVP
Method: During purification of the protein, the GST tag was removed by cleavage with PreScission Protease (GE Healthcare). Activity of the final PAD4 enzyme and batch consistency was determined by employing the enzyme in the FLINT NH3 release assay in the presence of N-a-benzoyl-L-arginine ethyl ester (BAEE) substrate and measuring the levels of NH3 release at a known substrate/enzyme concentration.
(§1) 8 μl of PAD4 enzyme diluted to an assay concentration of 75 nm in assay buffer (a): (100 mM HEPES, 50 mM NaCl, 2 mM DTT and 0.6 mg/ml BSA pH 8), or in assay buffer (b): (100 mM HEPES, 50 mM NaCl, 2 mM DTT, 7.5% glycerol and 1.5 mM CHAPS pH 8), and added to wells containing 0.1 μl of various concentrations of compound or DMSO vehicle (0.8% final) in a Greiner high volume 384 well black plate. Following 30 mins pre-incubation at rt, the reaction was initiated by the addition of 4 μl of substrate buffer containing 3 mM N-a-benzoyl-L-arginine ethyl ester (BAEE), 100 mM HEPES, 50 mM NaCl, 600 uM CaCl2 (2H2O) and 2 mM DTT, pH 8.0. The reaction was stopped after 100 mins with the addition of 38 μl stop/detection buffer containing 50 mM EDTA, 2.6 mM phthalaldehyde and 2.6 mM DTT.
as §1, with “of 30 nM” for “of 75 nm”, “buffer” for “buffer (a):”, “BSA” for “BSA pH 8), or in assay buffer (b): (100 mM HEPES, 50 mM NaCl, 2 mM DTT, 7.5% glycerol and 1.5 mM CHAPS”, “after 60” for “after 100”

[2] = target: T2, Recombinant human PAD2 (residues 1-665) (Homo sapiens, UniProt Q9Y2J8); assay: PAD2 enzyme assay (FLINT NH3 release, BAEE substrate); format: biochemical; details: PAD2 enzyme assay above or similar assays; to assess selectivity for PAD4 over PAD2; read-out: mean pIC50 (converted)
T2 construct: Recombinant human PAD2 (residues 1-665) was expressed in baculovirus-infected Sf9 insect cells; 6His-FLAG (N); made in house; host or cells: baculovirus-infected Sf9 insect cells
T2 sequence (Q9Y2J8 whole entry, the tested form may be a part): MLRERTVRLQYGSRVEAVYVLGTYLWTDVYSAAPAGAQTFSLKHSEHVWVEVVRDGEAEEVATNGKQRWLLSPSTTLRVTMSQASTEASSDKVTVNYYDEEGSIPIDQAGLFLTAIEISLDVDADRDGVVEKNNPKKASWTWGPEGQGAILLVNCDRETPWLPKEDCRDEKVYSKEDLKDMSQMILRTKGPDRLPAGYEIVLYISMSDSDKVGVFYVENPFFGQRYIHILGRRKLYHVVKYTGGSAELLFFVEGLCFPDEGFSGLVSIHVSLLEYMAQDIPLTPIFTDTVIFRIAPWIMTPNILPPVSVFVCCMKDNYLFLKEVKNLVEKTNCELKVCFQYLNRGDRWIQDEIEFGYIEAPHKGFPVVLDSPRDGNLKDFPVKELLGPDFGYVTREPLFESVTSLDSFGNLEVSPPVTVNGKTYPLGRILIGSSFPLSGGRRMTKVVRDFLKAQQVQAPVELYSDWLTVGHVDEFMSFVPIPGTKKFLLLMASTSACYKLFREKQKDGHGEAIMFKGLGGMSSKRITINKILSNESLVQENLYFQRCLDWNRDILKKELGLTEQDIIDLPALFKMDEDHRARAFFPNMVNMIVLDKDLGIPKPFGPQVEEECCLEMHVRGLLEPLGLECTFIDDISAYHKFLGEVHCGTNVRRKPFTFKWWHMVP
Method: Activity of the final product was determined using a FLINT NH3 release assay.
8 μl of PAD2 enzyme diluted to an assay concentration of 30 nM in assay buffer (100 mM HEPES, 50 mM NaCl, 2 mM DTT, 7.5% glycerol and 1.5 mM CHAPS pH 8), and added to wells containing 0.1 μl of various concentrations of compound or DMSO vehicle (0.8% final) in a Greiner high volume 384 well black plate. […] The reaction was stopped after 90 mins with the addition of […] stop/detection buffer containing 50 mM EDTA, 2.6 mM phthalaldehyde and 2.6 mM DTT.

Which IC50 [1] does the source give for Cn1c(-c2cc3ccccc3n2Cc2cccnc2)nc2cc(C(=O)N3CCC[C@@H](N)C3)ccc21 [Example 15, (3R)-1-({1-Methyl-2-[1-(3-pyridinylmethyl)-1H-indol-2-yl]-1H-benzimidazol-5-yl}carbonyl)-3-piperidinamine] here?
The IC50 was 39.8 to 398 nM and 398 nM.

Cn1cc(Cn2c(-c3nc4cc(C(=O)N5CCC[C@@H](N)C5)ccc4n3C)cc3ccccc32)cn1 [Example 20b, (3R)-1-[(1-Methyl-2-{1-[(1-methyl-1H-pyrazol-4-yl)methyl]-1H-indol-2-yl}-1H-benzimidazol-5-yl)carbonyl]-3-piperidinamine] was tested. Which IC50 [1] did it give?
Its IC50 is 39.8 to 398 nM and 398 nM.

Which IC50 [1] does the source give for Cn1c(-c2cc3ccccc3n2Cc2ccccc2)nc2cc(C(=O)N3CCC[C@@H](N)C3)ccc21 [Example 24, (3R)-1-({1-Methyl-2-[1-(phenylmethyl)-1H-indol-2-yl]-1H-benzimidazol-5-yl}carbonyl)-3-piperidinamine] here?
The IC50 was 39.8 to 398 nM and 158 nM.

Which results are given for Cn1c(-c2cc3ccccc3n2CC2CC2)nc2cc(C(=O)N3CC[C@@H](O)[C@@H](N)C3)ccc21 [Example 65, ((3S,4R)-3-Amino-4-hydroxypiperidin-1-yl)(2-(1-(cyclopropylmethyl)-1H-indol-2-yl)-1-methyl-1H-benzo[d]imidazol-5-yl)methanone]?
IC50 [2]: > 79400 nM; IC50 [1]: 39.8 to 398 nM and 158 nM
